Literature values as cited in patent US20110168623A1, “FEED SIDE PASSAGE MATERIAL AND SPIRAL SEPARATION MEMBRANE ELEMENT” (priority 2008, published 2011).

For Oc1cc(Cl)ccc1Oc1ccc(Cl)cc1Cl [triclosan, 2,4,4′-trichloro-2′-hydroxy diphenyl ether], the “antibacterial effect on Aspergillus niger” value (Aspergillus niger) is listed as “small or comparatively small antibacterial effect”, the “antibacterial effect on Pseudomonas aeruginosa” value (Pseudomonas aeruginosa) is listed as “small or comparatively small antibacterial effect” and the “antibacterial effect on Candida yeast” value (Candida yeast) is listed as “small or comparatively small antibacterial effect”.
